The values that follow come from US11918563B1, “Methods and compositions for treatment of epileptic disorders” (Ovid Therapeutics Inc., priority 2016, dated 2024).

Where two headings read alike, the source gives them in different places. Marks after values point to notes of the source that are not given here.

One may read the CL/F as clearance divided by bioavailability, as obtained after extravascular dosing.

In data set [1] the test system is Li-Pilo model of status epilepticus. Nature of the data set: Ability to block benzodiazepine-resistant status epilepticus in the Li-Pilo model. It counts as in vivo, male Sprague Dawley rats. As to the method:
At the conclusion of the behavioral observation period, a 3 mL injection of lactated Ringer's solution is administered to all surviving rats to replace any SE-induced fluid loss.
All animals in the study are retained for 24 hours following completion of the study for assessment of weight change.
Additional measures of effects, e.g., motor impairment, weight change post-SE, or survival from SE for 24 hrs are also recorded during the studies for all treatment conditions.

For data set [2] the following is noted: human, in vivo, po.
The conditions of data set [3]: patients with a history of drug abuse; cited from earlier work.
For data set [4] the following is noted: three-month efficacy study, insomnia; cited from earlier work.
The conditions of data set [5]: for Fe: geometric mean N=10.
The mark [6] stands for this setting: 0.5 mg/kg i.p. 30 min after first convulsive seizure, rats.
[7] abbreviates: 2 mg/kg i.p. 30 min after first convulsive seizure, rats.
Setting [8] is: 5 mg/kg i.p. 30 min after first convulsive seizure, rats.
The mark [9] stands for this setting: 10 mg/kg i.p. 30 min after first convulsive seizure, rats.
Setting [10] is: 20 mg/kg i.p. 30 min after first convulsive seizure, rats.

With `CC(=O)[C@H]1CC[C@H]2[C@@H]3CC[C@H]4C[C@H](O)CC[C@]4(C)[C@H]3CC[C@]12C` [ALLO, allopregnanolone], the “Protection (includes PK rats), percent” value in data set [1] (setting [6]) was “(0%)”; in data set [1] (setting [7]) it was “(0%)”; in data set [1] (setting [8]), “(0%)”; in data set [1] (setting [9]), “(15%)”; in data set [1] (setting [10]) it was “(7.7%)”. The “Protection (includes PK rats), protected/total” value is on record as 0/13 in data set [1] (setting [6]); 0/13 in data set [1] (setting [7]); 0/13 in data set [1] (setting [8]); 2/13 in data set [1] (setting [9]); 1/13 in data set [1] (setting [10]). Besides, the “24-hour Survival (excludes PK rats), percent” value in data set [1] (0.5 mg/kg i.p., rats) is listed as “(60%)”; in data set [1] (2 mg/kg i.p., rats), “(70%)”; in data set [1] (5 mg/kg i.p., rats) it was “(72%)”; in data set [1] (10 mg/kg i.p., rats) it was “(90%)”; in data set [1] (20 mg/kg i.p., rats), “(90%)”. Moreover, the “24-hour Survival (excludes PK rats), survivors/total” value in data set [1] (0.5 mg/kg i.p., rats) is on record as 6/10; in data set [1] (2 mg/kg i.p., rats), 7/10; in data set [1] (5 mg/kg i.p., rats), 7/9; in data set [1] (10 mg/kg i.p., rats), 9/10; in data set [1] (20 mg/kg i.p., rats), 9/10.
Turning to `CCN(CC)CCN1C(=O)CN=C(c2ccccc2F)c2cc(Cl)ccc21` [Flurazepam, flurazepam], the “Residual effect on primary endpoints Choice Reaction Time and Critical Flicker Fusion” value in data set [2] is “showed significant effect”.
`CC(=O)[C@H]1CC[C@H]2[C@@H]3CC[C@H]4C[C@](C)(O)CC[C@]4(C)[C@H]3CC[C@]12C` [GNX, ganaxolone]: the “Protection (includes PK rats), percent” value in data set [1] (setting [6]) is recorded as “(0%)”; in data set [1] (setting [7]) it was “(0%)”; in data set [1] (setting [8]), “(0%)”; in data set [1] (setting [9]) it was “(7.7%)”; in data set [1] (setting [10]) it was “(30.8%)*”. The “Protection (includes PK rats), protected/total” value is recorded as 0/13 in data set [1] (setting [6]); 0/13 in data set [1] (setting [7]); 0/13 in data set [1] (setting [8]); 1/13 in data set [1] (setting [9]); 4/13 in data set [1] (setting [10]). Moreover, the “24-hour Survival (excludes PK rats), percent” value in data set [1] (0.5 mg/kg i.p., rats) is recorded as “(60%)”; in data set [1] (2 mg/kg i.p., rats), “(80%)”; in data set [1] (5 mg/kg i.p., rats), “(70%)”; in data set [1] (10 mg/kg i.p., rats), “(90%)”; in data set [1] (20 mg/kg i.p., rats) it was “(90%)”. Besides, the “24-hour Survival (excludes PK rats), survivors/total” value in data set [1] (0.5 mg/kg i.p., rats) was 6/10; in data set [1] (2 mg/kg i.p., rats), 8/10; in data set [1] (5 mg/kg i.p., rats) it was 7/10; in data set [1] (10 mg/kg i.p., rats) it was 9/10; in data set [1] (20 mg/kg i.p., rats), 9/10. Besides, in data set [1] (20 mg/kg i.p., dose-dependent efficacy), the “Improvement in protection, in words” value is “significant (p<0.02) improvement in protection”.
Turning to `Oc1noc2c1CCNC2` [gaboxadol, 4,5,6,7-tetrahydroisoxazolo [5,4-c] pyridine-3-ol], in data set [2], the “Residual effect on primary endpoints Choice Reaction Time and Critical Flicker Fusion” value is given as “did not show residual effect”. Also, the “Residual effects on other measurements (MSLT, DSST, Tracking, Memory tests, Body Sway, Leeds Sleep Evaluation Questionnaire)” value in data set [2] is “did not show any signs of residual effects”. In addition, the Psychiatric adverse events entry in data set [3] is listed as “steep increase in psychiatric adverse events”. Further, the “Effects in sleep onset and sleep maintenance” value in data set [4] was “failed to show significant effects”. The Fe in data set [5] (2.5 mg single oral dose) was found to be 43%; in data set [5] (5 mg single oral dose) it was 45%; in data set [5] (10 mg I.V.), 53%; in data set [5] (10 mg Oral), 53%; in data set [5] (15 mg single oral dose), 50%; in data set [5] (20 mg single oral dose), 53%. For the same compound, the “CL (in CL/F row)” value in data set [5] (human, in vivo, iv, 10 mg) came to 438 mL/min. Further, the “AUC0-∞ Slope (dose proportionality assessment)” value in data set [5] (human, in vivo, po) is 0.98. Also, in data set [5] (human, in vivo, po), the “Cmax Slope (dose proportionality assessment)” value is recorded as 0.95. In addition, the CL/F in data set [5] (human, in vivo, po, 2.5 mg) is reported as 461 mL/min; in data set [5] (human, in vivo, po, 5 mg), 488 mL/min; in data set [5] (human, in vivo, po, 10 mg) it was 476 mL/min; in data set [5] (human, in vivo, po, 15 mg), 469 mL/min; in data set [5] (human, in vivo, po, 20 mg) it was 499 mL/min. Moreover, the “24-hour survival, in words” value in data set [1] (10 mg/kg, rats) is recorded as “Significant improvements in 24-hour survival”. Also, the “Dose-response profile of protection, in words” value in data set [1] (i.p., p=0.071 at 0.5 mg/kg) is reported as “Potential for inverted U-response profile”.
